Assay [1] deals with bone marrow derived mast cells (BMMCs). The assay can be described thus: β-hexosaminidase degranulation assay, BMMCs. The note with it: Mus musculus, BMMC, A23187-stimulated BMMCs, 1 hr, read-out: maximum inhibition of release of β-hex. The assay is classed as cell-based. As to the method:
FIGS. 1A-1F. A15 inhibits BMMC and RBL-2H3 cell degranulation. The structure of alkamide A15 is shown with different functional groups and carbons in the fatty acid chain labeled (FIG. 1A). BMMCs were plated and stimulated 4 hrs later with 1 μM A23187 and the indicated concentrations of A15 or vehicle only. The percent degranulation was measured after 1 hr (FIG. 1B). RBL-2H3 cells were treated with A23187 and the percent degranulation was determined 1 hr later (FIG. 1C) or every 10 min over a 1 hr time course (FIG. 1D). RBL-2H3 cells were plated and incubated for 4 hrs before the media was aspirated and replaced with media containing 1 μg/mL IgE anti-DNP. Cells were incubated overnight and washed prior to stimulation. The percent degranulation from RBL-2H3 cells was calculated after stimulation with 50 ng/mL DNP-HSA in combination with the indicated concentrations of A15 or vehicle only after 1 hr (FIG. 1E). RBL-2H3 cells were stimulated for 1 hr in Tyrode's buffer before supernatants were collected and levels of histamine were measured using a competitive inhibition EIA kit (FIG. 1F). […]
RBL-2H3 cell and BMMC degranulation was measured using a β-hexosaminidase (β-hex) activity assay. […]

A further assay relates to RAW 264.7 cells. The note with it: LPS-stimulated RAW 264.7 cells, literature; cited from earlier work.
The test system of another assay is RBL-2H3 cells. The assay can be described thus: PGE2 production, EIA, 8 hrs. Format: cell-based, rat. The note with it: 1 μM A23187, only at 100 μM. As to the method:
FIGS. 6A-6B. A15 inhibits de novo production of TNF-α and PGE2 from RBL-2H3 cells. RBL-2H3 cells were plated and incubated overnight prior to stimulation. Cells were stimulated with 1 μM A23187 in combination with the indicated doses of A15. Supernatants were collected 8 hrs later and TNF-α (FIG. 6A) or PGE2 (FIG. 6B) levels were measured using ELISA kits. Data shown are the means±SEM from 3 independent experiments. Statistical analysis was performed using a one-way ANOVA with Dunnett's post-hoc test, *p<0.05, **p<0.01, ***p<0.001.
Bone marrow cells were isolated from the femurs of 6-8 week old C57BL/6 mice and cultured in RPMI-1640 containing 10% heat-inactivated FBS, non-essential amino acids, HEPES buffer, sodium pyruvate, 100 U/mL penicillin, 100 μg/mL streptomycin, 5 ng/mL mIL-3, and 5 ng/mL mSCF for 4-6 weeks until mature, bone marrow-derived mast cells (BMMCs) were obtained, as described previously (Kuehn et al., 2010). Differentiation into >98% mast cells was confirmed through toluidine blue staining (1%, pH 1). RBL-2H3, RAW 264.7, and Jurkat cells were obtained from the American Type Culture Collection (Manassas, Va.). […] Optical density was determined using a Synergy HT microplate reader (BioTek Instruments, Inc, Winooski, Vt.). […]

Consider 1 compound from patent US20200290950A1, “ALKAMIDE COMPOUNDS AND USES THEREOF” (NORTH CAROLINA STATE UNIVERSITY, priority 2017, published 2020).

Broadly, the inhibition is how much of the control response was suppressed.

Regarding `CCCCCCC/C=C/C=C/C(=O)NCC(C)C` [A15, (2E,4E)-N-Isobutyldodeca-2,4-dienamide], the inhibition at 100 µM in assay [1] was 83.5%. In addition, the TNF-α production result in the assay with RAW 264.7 cells was “best inhibitors”. In the assay on RBL-2H3 cells, the “production of PGE2” value is recorded as “weakly inhibited”.
